Experimental data as given in patent US20260061027A1 (NeuroTher, LLC, priority 2024, published 2026).

Assay: In vitro metabolic stability of hepatocytes
Settings: Mouse hepatocytes, 0.5 ×10^6 cells/mL

Q: With `O=c1ccc2ccc(O)cc2o1` [7-Hydroxycoumarin] as the compound, how does the “T1/2” value read?
A: 3.0 min
